Assay results from patent US20050075358A1, “Methods for treating IGF1R-inhibitor induced hyperglycemia” (priority 2003, published 2005).

Assays:
insulin receptor = target: T1, insulin receptor (Rattus norvegicus, UniProt P15127); assay: acute Oral Glucose Tolerance Test (OGTT) in rats; type: in vivo; details: fasted rats, oral single dose 50, 100 and 200 mpk 4 hrs prior to glucose challenge (1 g/kg); glucose at 30, 60, 90, 120 min by glucometer
T1 construct: from tissue; host or cells: whole living rats (in vivo)
T1 sequence (P15127 764-1383 limits assumed): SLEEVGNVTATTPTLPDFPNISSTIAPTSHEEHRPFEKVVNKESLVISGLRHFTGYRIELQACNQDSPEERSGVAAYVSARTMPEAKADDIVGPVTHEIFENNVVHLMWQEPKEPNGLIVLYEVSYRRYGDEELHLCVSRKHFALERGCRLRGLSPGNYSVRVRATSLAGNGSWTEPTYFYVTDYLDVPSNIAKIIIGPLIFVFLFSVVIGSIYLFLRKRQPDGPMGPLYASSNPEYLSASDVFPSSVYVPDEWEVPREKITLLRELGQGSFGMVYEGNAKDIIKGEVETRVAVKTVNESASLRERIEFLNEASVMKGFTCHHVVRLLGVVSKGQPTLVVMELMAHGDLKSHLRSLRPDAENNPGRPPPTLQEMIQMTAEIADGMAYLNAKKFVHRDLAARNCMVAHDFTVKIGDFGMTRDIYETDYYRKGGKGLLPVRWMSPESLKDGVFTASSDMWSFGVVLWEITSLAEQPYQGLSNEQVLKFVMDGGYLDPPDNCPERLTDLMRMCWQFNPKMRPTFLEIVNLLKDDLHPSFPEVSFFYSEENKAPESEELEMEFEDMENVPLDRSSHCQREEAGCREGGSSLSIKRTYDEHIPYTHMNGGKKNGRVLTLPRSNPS
T1 sequence (P15127 27-759 partner limits assumed): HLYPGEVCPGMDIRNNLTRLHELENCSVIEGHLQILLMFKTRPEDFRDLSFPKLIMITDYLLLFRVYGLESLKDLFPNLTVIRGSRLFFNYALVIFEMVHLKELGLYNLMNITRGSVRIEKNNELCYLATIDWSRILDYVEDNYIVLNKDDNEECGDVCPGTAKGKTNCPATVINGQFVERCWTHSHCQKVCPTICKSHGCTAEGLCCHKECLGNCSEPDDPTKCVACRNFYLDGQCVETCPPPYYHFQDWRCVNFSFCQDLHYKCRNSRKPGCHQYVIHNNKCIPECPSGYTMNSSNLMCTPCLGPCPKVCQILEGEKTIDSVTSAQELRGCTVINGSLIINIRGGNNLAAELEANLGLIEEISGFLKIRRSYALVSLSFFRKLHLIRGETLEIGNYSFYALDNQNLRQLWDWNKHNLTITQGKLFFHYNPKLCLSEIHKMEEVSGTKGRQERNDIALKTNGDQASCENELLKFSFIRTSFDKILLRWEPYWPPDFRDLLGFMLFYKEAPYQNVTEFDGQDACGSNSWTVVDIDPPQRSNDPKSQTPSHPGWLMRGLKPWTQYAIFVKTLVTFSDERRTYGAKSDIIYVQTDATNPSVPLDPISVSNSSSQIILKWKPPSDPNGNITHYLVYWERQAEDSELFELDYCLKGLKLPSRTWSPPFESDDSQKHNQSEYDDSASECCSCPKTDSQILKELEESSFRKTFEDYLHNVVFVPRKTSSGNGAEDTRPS
Description: FIG. 1: The effect of inhibition of the insulin receptor was measured using an Oral Glucose Tolerance Test (OGTT). IGF1R Inhibitor A (4-[2-(3-chloro-phenyl)-2-hydroxy-ethylamino]-3-(4-methyl-6-morpholin-4-yl-1H-benzoimidazol-2-yl)-1H-pyridin-2-one) was tested in an acute OGTT study in rats: Fasted rats were orally dosed with Inhibitor A at 50, 100, and 200 mpk as a single dose for 4 hrs prior to glucose challenge (1 g/kg). Glucose was monitored at 30, 60, 90 and 120 minutes post glucose challenge using a glucometer.

[1] = acute OGTT study of combination therapy using Metformin and Inhibitor A in rats; type: in vivo
Description: FIG. 2: An acute OGTT study to determine the effects of combination therapy using Metformin and Inhibitor A on glucose-lowering was conducted in rats. In order to stabilize glucose levels, food was withdrawn for 1 hr prior to administration of any reagent. Glucose challenge was administered 2 hrs after the administration of Inhibitor A and plasma glucose monitored. Plasma glucose levels increased upon administration of the Inhibitor (200 mpk) to 150 mg/dl prior to glucose challenge and to 250 mg/dl post-glucose challenge.

plasma glucose level post-glucose challenge ([1]; rats, Inhibitor 200 mpk, glucose challenge 2 hrs after Inhibitor A) [mg/dL]	plasma glucose level prior to glucose challenge ([1]; rats, Inhibitor 200 mpk, prior to glucose challenge) [mg/dL]	Structure (SMILES)	effect on basal and post-glucose challenge glucose (insulin receptor)	hyperglycemic effects of Inhibitor A after Metformin pretreatment ([1]; rats pretreated for 1 hr with Metformin 450 mpk, then Inhibitor A 200 mpk)
250	150	Cc1cc(N2CCOCC2)cc2[nH]c(-c3c(NCC(O)c4cccc(Cl)c4)cc[nH]c3=O)nc12 (stereo not shown) [Inhibitor A, 4-[2-(3-chloro-phenyl)-2-hydroxy-ethylamino]-3-(4-methyl-6-morpholin-4-yl-1H-benzoimidazol-2-yl)-1H-pyridin-2-one]	more pronounced effect on basal and post-glucose challenge at higher drug concentrations	–
–	–	CN(C)C(=N)N=C(N)N [Metformin, reference compound]	–	completely ameliorated
